Measured values reported in publication PMC4410478, “Larvicidal activity and possible mode of action of four flavonoids and two fatty acids identified in Millettia pinnata seed toward three mosquito species” (Parasites & Vectors, 2015).
≈ marks a conversion by molar mass, not a printed value. Where two headings read alike, the source gives them in different places.

Tests used:
[1] = tested on: different mosquito species larvae; conditions: cited from earlier work
[2] = tested on: third instar larvae from wild Aedes albopictus; test: direct-contact mortality bioassay; conditions: for LC50: Aedes albopictus, 24 h, read-out: LC50, mg/L (95% CL)
Description: (§1) A direct-contact mortality bioassay was used to evaluate the toxicity of all compounds to third instar larvae from the susceptible and wild mosquito populations. Each compound in acetone (for karanjin) or methanol (for the other compounds) was suspended in distilled water with Triton X-100 (20 μL/L). Groups of 20 mosquito larvae were separately put into paper cups (270 mL) containing each test compound solution (250 mL). The OPs temephos and fenthion served as positive controls and were similarly formulated. Negative controls consisted of the acetone– or methanol–Triton X-100 solution in distilled water. […] Treated and control (acetone– or methanol–Triton X-100 solution only) larvae were held under the same conditions as those used for colony maintenance. […] All treatments were replicated three times using 20 larvae per replicate.
(§2) In separate experiments, the efficacy of the 12 experimental liquid formulations was evaluated, as stated previously. Groups of 20 mosquito larvae were separately put into paper cups containing each test solution. Temephos 200 g/L EC served as a positive control. Negative controls consisted of the ethoxylated castor oil + polyoxyethylene dodecyl mono ether solution in distilled water or water. Mortalities were recorded, as stated previously. All treatments were replicated three times using 20 larvae per replicate.
(§3) Data were corrected for control mortality using Abbott’s formula [36]. The percentages of mortality were transformed to arcsine square-root values for analysis of variance (ANOVA). […] IC50 values and cAMP levels were subjected to ANOVA. The Bonferroni multiple-comparison method was used for comparison of means. Means ± SE of untransformed data are reported. Concentration–mortality data were subjected to probit analysis.

[3] = tested on: third instar Culex pipiens pallens larvae; test: direct-contact mortality bioassay; conditions: for LC50: Culex pipiens, 24 h, read-out: LC50, mg/L (95% CL)
Description: as §1, §2, §3

[4] = tested on: third instar Aedes aegypti larvae; test: direct-contact mortality bioassay; conditions: for LC50: Aedes aegypti, 24 h, read-out: LC50, mg/L (95% CL)
Description: as §1, §2, §3

[5] = tested on: octopamine sensitive adenylate cyclase, whole body homogenate from third instar A. aegypti larvae; test: Determination of cyclic AMP level (octopamine sensitive adenylate cyclase activity); type: biochemical, Aedes aegypti; conditions: 100 μM test compound; octopamine 100 μM alone as comparator
Description: The in vitro octopamine sensitive adenylate cyclase activity was investigated according to the modified method of Pratt and Pryor [35]. The whole bodies of 75 third instar A. aegypti larvae (106.2 mg) were homogenized in 500 μL of 2 mM Tris-maleate buffer (pH 7.4) containing 0.8 mM ethylene glycol tetraacetic acid (EGTA). Adenylate cyclase activity was measured using a cAMP Biotrak Enzyme immunoassay system according to the manufacturer’s instructions. The assay was conducted in a total volume of 100 μL containing 80 mM Tris-maleate buffer, 5 mM theophylline (to inhibit phosphodiesterase activity), 2 mM MgSO4, 0.5 mM adenosine triphosphate (ATP), 0.2 mM EGTA, 50 μL of whole body homogenate (equivalent to 4.22 μg protein), and 1 μL of the test compounds in Tris-maleate buffer containing 0.2% ethanol. After incubation for 5 min at 20°C, the reaction was initiated by the addition of ATP. Incubation was carried out at 30°C for 3 min in a shaking water bath. The reaction was terminated by boiling for 2 min, and then the assay tube was cooled and centrifuged for 10 min at 8000 g. The 50 μL aliquots of the supernatant were assayed for cAMP level.
The polystyrene microplates (1 strip of 8 wells) coated with a goat anti-mouse polyclonal antibody were used. Fifty microliters of primary antibody (mouse monoclonal antibody) solution was added to each well except the blank wells (or the nonspecific binding (NSB) wells). The wells covered with the adhesive strip were incubated for 1 h at 25°C in a shaking incubator (480 rpm), followed by four times washing steps, each with 400 μL of wash buffer. The 50 μL of the test samples for cAMP determination and cAMP standard were added to wells. Control, blank (NSB), and zero standard wells were added with 50 μL of the diluent RD5-55 buffer. The 50 μL of cAMP conjugate (horseradish peroxidase-labeled cAMP) was then added to wells. The plate covered with a new adhesive strip was incubated for 2 h at 25°C on the shaker, followed by the four times washing steps. Then, 200 μL of substrate solution (equal volume of stabilized hydrogen peroxide and stabilized chromogen) was added to each well, and the test plate was incubated for 30 min at 25°C on the benchtop in darkness. Finally, the reaction was stopped by adding 100 μL of stop solution (2 N sulfuric acid) to each well. Optical densities at 450 and 540 nm were measured using the VersaMax microplate reader. The readings at 540 nm were subtracted from the readings at 450 nm. The cAMP concentrations were expressed as nmol/μg protein. Results were expressed as mean ± SE of duplicate samples of three independent experiments.

[6] = target: AChE from A. aegypti larvae (Aedes aegypti, UniProt A4GND7); test: Acetylcholinesterase assay (microplate); type: biochemical; conditions: acetylthiocholine iodide hydrolysis at 30°C and pH 8.0
Description: Third instar larvae of A. aegypti was used in all experiments. […] After filtering through cheese cloth, the homogenate was centrifuged at 1000 g at 4°C for 5 min. The supernatant was used as the acetylcholinesterase (AChE) preparation. Protein content was determined by the Bradford dye method using BSA as the standard. Microplate AChE assay was carried out following the method of Hemingway et al. adapted from Ellman et al.. The reaction mixture consisted of 50 μL of the crude enzyme preparation, 150 μL of 0.1 M phosphate buffer, 20 μL of 3 mM DTNB in phosphate buffer (pH 7.0), and 1 μL of various concentrations of each test compound in ethanol. The reaction mixture was incubated at 30°C for 5 min and 20 μL of 32 mM ATChI was then added to the mixture. After incubation for 30 min, the reaction was stopped by adding 20 μL of 5 mM eserine salicylate. The absorbance was recorded at 412 nm using a VersaMax microplate reader (Molecular Devices, Sunnyvale, CA). Results were expressed as mean ± SE of triplicate samples of three independent experiments.
IC50 values and cAMP levels were subjected to ANOVA. […] Means ± SE of untransformed data are reported. Concentration–mortality data were subjected to probit analysis.

AChE from A. aegypti larvae, sequence (A4GND7 37-679): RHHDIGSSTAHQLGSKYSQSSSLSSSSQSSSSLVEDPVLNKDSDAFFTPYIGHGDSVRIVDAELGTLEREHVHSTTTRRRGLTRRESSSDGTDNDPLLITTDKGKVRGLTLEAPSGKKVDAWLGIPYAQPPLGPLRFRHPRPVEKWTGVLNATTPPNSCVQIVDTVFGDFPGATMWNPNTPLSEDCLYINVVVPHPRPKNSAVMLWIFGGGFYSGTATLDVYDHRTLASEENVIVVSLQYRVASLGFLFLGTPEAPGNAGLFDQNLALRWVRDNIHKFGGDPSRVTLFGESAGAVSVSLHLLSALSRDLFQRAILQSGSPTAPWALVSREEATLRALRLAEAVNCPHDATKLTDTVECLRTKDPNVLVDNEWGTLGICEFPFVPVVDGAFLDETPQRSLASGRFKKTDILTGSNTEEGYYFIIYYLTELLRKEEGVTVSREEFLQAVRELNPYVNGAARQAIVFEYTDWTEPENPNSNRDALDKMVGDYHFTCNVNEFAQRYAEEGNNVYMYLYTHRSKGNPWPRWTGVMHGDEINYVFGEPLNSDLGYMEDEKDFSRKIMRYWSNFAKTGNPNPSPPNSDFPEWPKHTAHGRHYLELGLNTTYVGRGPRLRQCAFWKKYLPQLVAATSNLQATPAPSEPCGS

Molecule	LC50 [2]	LC50 [3]	LC50 [4]	other results
O=C1C=CC[C@H](/C=C/c2ccccc2)O1 [goniothalmin]	–	–	–	LC50 ([1]; lactone): 0.87 to 25.95 µg/mL
CCCCOCc1ccc(O)cc1 [4-butoxymethylphenol]	–	–	–	LC50 ([1]; phenol): 0.05 µg/mL (≈ 0.277 µM)
piperonaline	–	–	–	LC50 ([1]; alkaloid): 0.21 to 0.25 µg/mL
CCOC(=O)/C=C/c1ccccc1 [ethyl cinnamate]	–	–	–	LC50 ([1]; phenylpropanoids): 12.3 µg/mL (≈ 69.8 µM)
CCCCCCCC/C=C\CCCCCCCC(=O)OC [Methyl oleate, methyl oleate]	> 200 mg/L	> 200 mg/L	> 200 mg/L	–
O=c1c2c(oc3c1ccc1occc13)COc1ccccc1-2 [Pongarotene (6), pongarotene]	65 mg/L (≈ 224 µM)	25.5 mg/L (≈ 87.9 µM)	37.6 mg/L (≈ 130 µM)	–
eupomatenoid-5	–	–	–	LC50 ([1]; neolignans): < 10 µg/mL
COP(=S)(OC)Oc1ccc(SC)c(C)c1 [Fenthion, fenthion, reference compound]	0.033 mg/L (≈ 0.119 µM)	0.027 mg/L (≈ 0.097 µM)	0.022 mg/L (≈ 0.079 µM)	–
COc1c(-c2ccccc2)oc2c3c(ccc2c1=O)OC(C)(C)C=C3 [Karanjachromene (2), karanjachromene]	53 mg/L (≈ 158 µM)	18.7 mg/L (≈ 56 µM)	20.6 mg/L (≈ 61.5 µM)	–
C/C=C/c1ccc2c(c1)[C@@H](C)[C@H](c1ccc(O)cc1)O2 [conocarpan]	–	–	–	LC50 ([1]; neolignans): < 10 µg/mL
CCCCCCCCCCCCCCCCCCCCCC(=O)O [Behenic acid, behenic acid]	105 mg/L (≈ 309 µM)	68.8 mg/L (≈ 202 µM)	86.8 mg/L (≈ 255 µM)	cAMP level compared with that induced by octopamine [5]: significantly higher than that induced by octopamine
C/C=C/c1ccc2oc(-c3ccc(O)cc3)c(C)c2c1 [eupomatenoid-6]	–	–	–	LC50 ([1]; neolignans): < 10 µg/mL
COc1c(-c2ccccc2)oc2c(ccc3occc32)c1=O [Karanjin (1), karanjin]	35.3 mg/L (≈ 121 µM)	14.6 mg/L (≈ 50 µM)	16.1 mg/L (≈ 55.2 µM)	–
CCCCC/C=C\C/C=C\CCCCCCCC(=O)OCC [Ethyl linoleate, ethyl linoleate]	> 200 mg/L	> 200 mg/L	> 200 mg/L	–
CC#CC#CC(=O)c1ccccc1 [capillin]	–	–	–	LC50 ([1]; polyacetylene): < 10 µg/mL
CC(C)=CCOc1c2occc2cc2ccc(=O)oc12 [imperatorin]	–	–	–	LC50 ([1]; coumarins): 2.88 µg/mL (≈ 10.7 µM)
COC1=C[C@@H](C)[C@@H]2C[C@H]3OC(=O)C[C@H]4C(C)=C(OC)C(=O)[C@H]([C@@]2(C)C1=O)[C@@]34C [quassin]	–	–	–	LC50 ([1]; terpenoid): 6.0 µg/mL (≈ 15.4 µM)
pongamol [Pongamol (5)]	–	–	–	LC50, mg/L (95% CL) ([2]; compounds, third instar larvae from wild Aedes albopictus, 24 h exposure): 56.14 (49.50–64.69) mg/L; LC50, mg/L (95% CL) ([3]; compounds, third instar Culex pipiens pallens larvae, 24 h exposure): 23.95 (20.68–27.34) mg/L; LC50, mg/L (95% CL) ([4]; compounds, third instar Aedes aegypti larvae, 24 h exposure): 25.76 (22.44–29.35) mg/L

Molecule	LC50 [2]	LC50 [3]	LC50 [4]	other results
CCCCC/C=C\C/C=C\CCCCCCCC(=O)O [Linoleic acid, linoleic acid]	68.9 mg/L (≈ 246 µM)	20.1 mg/L (≈ 71.8 µM)	21.3 mg/L (≈ 75.9 µM)	cAMP level compared with that induced by octopamine [5]: significantly higher than that induced by octopamine
CCCCCCCC/C=C/CCCCCCCC(=O)O [Elaidic acid, elaidic acid]	66.3 mg/L (≈ 235 µM)	28.2 mg/L (≈ 99.9 µM)	32.2 mg/L (≈ 114 µM)	cAMP level compared with that induced by octopamine [5]: significantly higher than that induced by octopamine
C/C=C/c1cc(OC)c(OC)cc1OC [α-asarone]	–	–	–	LC50 ([1]; phenylpropanoids): 26.99 µg/mL (≈ 130 µM)
CCCCCCCCCCCCCCCC(=O)O [Palmitic acid (4), palmitic acid]	85.6 mg/L (≈ 334 µM)	34.5 mg/L (≈ 135 µM)	43 mg/L (≈ 168 µM)	AChE inhibition IC50 [6]: lowest of any of the compounds examined; cAMP level compared with that induced by octopamine [5]: significantly lower than that induced by octopamine
C=C1CC[C@H]2C(C)(C)CCC[C@]2(C)[C@H]1C/C=C(/C=O)CC=O [labda-8(17)-diene-15,16-dial]	–	–	–	LC50 ([1]; terpenoid): < 10 µg/mL
N#C[C@@H](O[C@@H]1O[C@H](CO)[C@@H](O)[C@H](O)[C@H]1O)c1ccc(O)cc1 [dhurrin]	–	–	–	LC50 ([1]; cyanogenic glycoside): 1.12 µg/mL (≈ 3.6 µM)
COP(=S)(OC)Oc1ccc(Sc2ccc(OP(=S)(OC)OC)cc2)cc1 [Temephos, temephos, reference compound]	0.01 mg/L (≈ 0.0214 µM)	0.013 mg/L (≈ 0.0279 µM)	0.015 mg/L (≈ 0.0322 µM)	–
COc1ccc2ccc(=O)oc2c1CC=C(C)C [osthole]	–	–	–	LC50 ([1]; coumarins): 3.14 µg/mL (≈ 12.9 µM)
C=C[C@@H](O)C#CC#C[C@@H](O)/C=C\CCCCCCC [falcarindiol]	–	–	–	LC50 ([1]; acetylenic alcohols): 6.51 µg/mL (≈ 25 µM)
CCCCCCCCCCCCCCCCCCCC(=O)O [Arachidic acid, arachidic acid]	–	–	–	cAMP level compared with that induced by octopamine [5]: significantly higher than that induced by octopamine
CCCCCCCC/C=C\CCCCCCCC(=O)OCC [Ethyl oleate, ethyl oleate]	> 200 mg/L	> 200 mg/L	> 200 mg/L	–
C=C[C@H](O)C#CC#CC/C=C\CCCCCCC [falcarinol]	–	–	–	LC50 ([1]; acetylenic alcohols): 3.49 µg/mL (≈ 14.3 µM)
CCCCC/C=C\C/C=C\CCCCCCCC(=O)OC [Methyl linoleate, methyl linoleate]	> 200 mg/L	> 200 mg/L	> 200 mg/L	–
CCCCCCCCCCCCCCCCCC(=O)O [Stearic acid, stearic acid]	> 200 mg/L	> 200 mg/L	> 200 mg/L	–
CCCCCCCC/C=C\CCCCCCCC(=O)O [Oleic acid (3), oleic acid]	18.8 mg/L (≈ 66.5 µM)	18.1 mg/L (≈ 64 µM)	18.4 mg/L (≈ 65.3 µM)	cAMP level compared with that induced by octopamine [5]: significantly lower than that induced by octopamine
CC/C=C\C/C=C\C/C=C\CCCCCCCC(=O)O [Linolenic acid, linolenic acid]	71.3 mg/L (≈ 256 µM)	21.3 mg/L (≈ 76.6 µM)	22.6 mg/L (≈ 81.1 µM)	cAMP level compared with that induced by octopamine [5]: significantly higher than that induced by octopamine
CCOC(=O)C=Cc1ccc(OC)cc1 [ethyl p-methoxycinnamate]	–	–	–	LC50 ([1]; phenylpropanoids): 20.7 µg/mL (≈ 100 µM)
